Results reported in patent US11192867B2, “Microbiocidal oxadiazole derivatives” (SYNGENTA PARTICIPATIONS AG, priority 2016, dated 2021).

Tests used:
[1] = test system: Puccinia recondita f. sp. Tritici; assay: Fungicidal activity against Puccinia recondita f. sp. Tritici / wheat / leaf disc curative (brown rust); assay type: in vivo; details: foliar, 24 h, 200 ppm in the applied formulation, wheat leaf segments cv. Kanzler, applied 1 day after inoculation, vs untreated control, read-out: disease control
Method: Leaf disks or leaf segments of various plant species are cut from plants grown in a greenhouse. The cut leaf disks or segments are placed in multiwell plates (24-well format) onto water agar. The leaf disks are sprayed with a test solution before (preventative) or after (curative) inoculation. Compounds to be tested are prepared as DMSO solutions (max. 10 mg/ml) which are diluted to the appropriate concentration with 0.025% Tween20 just before spraying. The inoculated leaf disks or segments are incubated under defined conditions (temperature, relative humidity, light, etc.) according to the respective test system. A single evaluation of disease level is carried out 3 to 14 days after inoculation, depending on the pathosystem. Percent disease control relative to the untreated check leaf disks or segments is then calculated.
Wheat leaf segments cv. Kanzler are placed on agar in multiwell plates (24-well format). The leaf segments are then inoculated with a spore suspension of the fungus. Plates were stored in darkness at 19° C. and 75% relative humidity. The formulated test compound diluted in water was applied 1 day after inoculation. The leaf segments were incubated at 19° C. and 75% relative humidity under a light regime of 12 hours light/12 hours darkness in a climate cabinet and the activity of a compound was assessed as percent disease control compared to untreated when an appropriate level of disease damage appears in untreated check leaf segments (6 to 8 days after application).
The following compounds at 200 ppm in the applied formulation give at least 80% disease control in this test when compared to untreated control leaf disks under the same conditions, which show extensive disease development.

[2] = test system: Glomerella lagenarium (Colletotrichum lagenarium); assay: Fungicidal activity against Glomerella lagenarium (Colletotrichum lagenarium) liquid culture / cucumber / preventative (anthracnose); assay type: cell-based; details: Colletotrichum orbiculare, 72 h; 20 ppm in the applied formulation; liquid culture (PDB), growth inhibition measured photometrically 3 to 4 days after application; vs untreated control; read-out: disease control
Procedure, shortened: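 Test compound in DMSO is placed in a microtiter plate, then potato dextrose broth containing conidia from cryogenic storage is added. Incubation runs at 24° C., and growth inhibition is read photometrically after 3 to 4 days.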

[3] = test system: Puccinia recondita f. sp. Tritici; assay: Fungicidal activity against Puccinia recondita f. sp. Tritici / wheat / leaf disc preventative (brown rust); assay type: in vivo; details: foliar, 200 ppm in the applied formulation, wheat leaf segments cv. Kanzler, inoculated 1 day after application, vs untreated control, read-out: disease control
Procedure, shortened: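 Preventative leaf-segment test, cv. Kanzler on agar: spray compound, inoculate with spore suspension 1 d post-application, hold at 19° C./75% rh, 12 h/12 h light cycle. Read-out = % disease control vs untreated check at 7–9 d; 200 ppm in applied formulation.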

Phakopsora pachyrhizi = assay: Fungicidal activity against Phakopsora pachyrhizi / soybean / leaf disc preventative (Asian soybean rust); assay type: in vivo; details: foliar, 200 ppm in the applied formulation, soybean leaf disks, vs untreated control, read-out: disease control
Procedure, shortened: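 Preventative test: compound sprayed onto soybean leaf discs one day before spore inoculation of the lower leaf face. Incubation at 20 °C and 75% rh, first 24-36 h in darkness, then a 12 h light cycle. Disease control versus untreated discs read 12-14 days after application.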

C=CCON=CCNC(=O)c1ccc(-c2noc(C(F)(F)F)n2)cc1 [Compound 1.91, N-(2-allyloxyiminoethyl)-4-[5-(trifluoromethyl)-1,2,4-oxadiazol-3-yl]benzamide]
≥ 80%: pest or weed control at 200 ppm [1] | inhibition of growth at 20 ppm [2] | pest or weed control at 200 ppm [3] | pest or weed control at 200 ppm (Phakopsora pachyrhizi)

O=C(NCC=NOC/C=C\Cl)c1ccc(-c2noc(C(F)(F)F)n2)cc1 [Compound 1.81, N-[2-[(Z)-3-chloroallyloxy]iminoethyl]-4-[5-(trifluoromethyl)-1,2,4-oxadiazol-3-yl]benzamide]
≥ 80%: pest or weed control at 200 ppm [1] | inhibition of growth at 20 ppm [2] | pest or weed control at 200 ppm [3] | pest or weed control at 200 ppm (Phakopsora pachyrhizi)

CCON=CC(C)NC(=O)c1ccc(-c2noc(C(F)(F)F)n2)cc1 (centres unmarked) [Compound 1.43, N-(2-ethoxyimino-1-methyl-ethyl)-4-[5-(trifluoromethyl)-1,2,4-oxadiazol-3-yl]benzamide]
≥ 80%: pest or weed control at 200 ppm [1] | inhibition of growth at 20 ppm [2] | pest or weed control at 200 ppm [3] | pest or weed control at 200 ppm (Phakopsora pachyrhizi)

O=C(NCC=NOCC1CC1)c1ccc(-c2noc(C(F)(F)F)n2)cc1 [Compound 1.101, N-[2-(cyclopropyl-methoxyimino)ethyl]-4-[5-(trifluoromethyl)-1,2,4-oxadiazol-3-yl]benzamide]
≥ 80%: pest or weed control at 200 ppm [1] | inhibition of growth at 20 ppm [2] | pest or weed control at 200 ppm [3] | pest or weed control at 200 ppm (Phakopsora pachyrhizi)

C=C(Cl)CON=CCNC(=O)c1ccc(-c2noc(C(F)(F)F)n2)cc1 [Compound 1.100, N-[2-(2-chloroallyloxy-imino)ethyl]-4-[5-(trifluoromethyl)-1,2,4-oxadiazol-3-yl]benzamide]
≥ 80%: pest or weed control at 200 ppm [1] | inhibition of growth at 20 ppm [2] | pest or weed control at 200 ppm [3] | pest or weed control at 200 ppm (Phakopsora pachyrhizi)

CC(C)(C)ON=CCNC(=O)c1ccc(-c2noc(C(F)(F)F)n2)cc1 [Compound 1.89, N-(2-tert-butoxyiminoethyl)-4-[5-(trifluoromethyl)-1,2,4-oxadiazol-3-yl]benzamide]
≥ 80%: pest or weed control at 200 ppm [1] | inhibition of growth at 20 ppm [2] | pest or weed control at 200 ppm [3] | pest or weed control at 200 ppm (Phakopsora pachyrhizi)

CC(C=NOCC=CCl)NC(=O)c1ccc(-c2noc(C(F)(F)F)n2)cc1 (centres unmarked) [Compound 1.33, N-[2-(3-chloroallyloxy-imino)-1-methyl-ethyl]-4-[5-(trifluoromethyl)-1,2,4-oxadiazol-3-yl]benzamide]
≥ 80%: pest or weed control at 200 ppm [1] | inhibition of growth at 20 ppm [2] | pest or weed control at 200 ppm [3] | pest or weed control at 200 ppm (Phakopsora pachyrhizi)

CON=C(C)CNC(=O)c1ccc(-c2noc(C(F)(F)F)n2)cc1 [Compound 1.133, N-(2-methoxyimino-propyl)-4-[5-(trifluoromethyl)-1,2,4-oxadiazol-3-yl]benzamide]
≥ 80%: pest or weed control at 200 ppm [1] | inhibition of growth at 20 ppm [2] | pest or weed control at 200 ppm [3] | pest or weed control at 200 ppm (Phakopsora pachyrhizi)

C[C@@H](ON=CCNC(=O)c1ccc(-c2noc(C(F)(F)F)n2)cc1)C(=O)O [Compound 1.74, (2R)-2-[2-[[4-[5-(trifluoromethyl)-1,2,4-oxadiazol-3-yl]benzoyl]amino]ethylideneamino] oxypropanoic acid]
≥ 80%: pest or weed control at 200 ppm [1] | inhibition of growth at 20 ppm [2] | pest or weed control at 200 ppm [3] | pest or weed control at 200 ppm (Phakopsora pachyrhizi)

CC(C=NOC1COC1)NC(=O)c1ccc(-c2noc(C(F)(F)F)n2)cc1 (centres unmarked) [Compound 1.58, N-[1-methyl-2-(oxetan-3-yloxyimino)ethyl]-4-[5-(trifluoromethyl)-1,2,4-oxadiazol-3-yl]benzamide]
≥ 80%: pest or weed control at 200 ppm [1] | inhibition of growth at 20 ppm [2] | pest or weed control at 200 ppm [3] | pest or weed control at 200 ppm (Phakopsora pachyrhizi)

CC(CNC(=O)c1ccc(-c2noc(C(F)(F)F)n2)cc1)=NOCCO [Compound 1.104]
≥ 80%: pest or weed control at 200 ppm [1] | inhibition of growth at 20 ppm [2] | pest or weed control at 200 ppm [3] | pest or weed control at 200 ppm (Phakopsora pachyrhizi)

O=C(NCC=NOC1CCCCO1)c1ccc(-c2noc(C(F)(F)F)n2)cc1 (centres unmarked) [Compound 1.70, N-(2-tetrahydropyran-2-yloxyiminoethyl)-4-[5-(trifluoromethyl)-1,2,4-oxadiazol-3-yl]benzamide]
≥ 80%: pest or weed control at 200 ppm [1] | inhibition of growth at 20 ppm [2] | pest or weed control at 200 ppm [3] | pest or weed control at 200 ppm (Phakopsora pachyrhizi)

CC(CNC(=O)c1ccc(-c2noc(C(F)(F)F)n2)cc1)=NO[C@H](C)C(=O)O [Compound 1.117, (2R)-2-[[1-methyl-2-[[4-[5-(trifluoromethyl)-1,2,4-oxadiazol-3-yl]benzoyl]amino]ethylidene]amino] oxypropanoic acid]
≥ 80%: pest or weed control at 200 ppm [1] | inhibition of growth at 20 ppm [2] | pest or weed control at 200 ppm [3]

CC(CNC(=O)c1ccc(-c2noc(C(F)(F)F)n2)cc1)=NOC(C)C [Compound 1.138, N-(2-isopropoxyimino-propyl)-4-[5-(trifluoromethyl)-1,2,4-oxadiazol-3-yl]benzamide]
≥ 80%: pest or weed control at 200 ppm [1] | inhibition of growth at 20 ppm [2] | pest or weed control at 200 ppm [3] | pest or weed control at 200 ppm (Phakopsora pachyrhizi)

CC(C=NOC/C=C\Cl)NC(=O)c1ccc(-c2noc(C(F)(F)F)n2)cc1 (centres unmarked) [Compound 1.36, N-[2-[(Z)-3-chloroallyloxy]imino-1-methyl-ethyl]-4-[5-(trifluoromethyl)-1,2,4-oxadiazol-3-yl]benzamide]
≥ 80%: pest or weed control at 200 ppm [1] | inhibition of growth at 20 ppm [2] | pest or weed control at 200 ppm [3] | pest or weed control at 200 ppm (Phakopsora pachyrhizi)

CC(C=NO[C@@H](C)C(=O)O)NC(=O)c1ccc(-c2noc(C(F)(F)F)n2)cc1 (stereo partly drawn) [Compound 1.32, (2S)-2-[2-[[4-[5-(trifluoromethyl)-1,2,4-oxadiazol-3-yl]benzoyl]amino]propylideneamino] oxypropanoic acid]
≥ 80%: pest or weed control at 200 ppm [1] | inhibition of growth at 20 ppm [2] | pest or weed control at 200 ppm [3]

CC(CNC(=O)c1ccc(-c2noc(C(F)(F)F)n2)cc1)=NOC(C)C(=O)O (centres unmarked) [Compound 1.125, 2-[[1-methyl-2-[[4-[5-(trifluoromethyl)-1,2,4-oxadiazol-3-yl]benzoyl]amino]ethylidene]amino] oxypropanoic acid]
≥ 80%: pest or weed control at 200 ppm [1] | inhibition of growth at 20 ppm [2] | pest or weed control at 200 ppm [3]

C[C@H](ON=CCNC(=O)c1ccc(-c2noc(C(F)(F)F)n2)cc1)C(=O)O [Compound 1.77, (2S)-2-[2-[[4-[5-(trifluoromethyl)-1,2,4-oxadiazol-3-yl]benzoyl]amino]ethylideneamino] oxypropanoic acid]
≥ 80%: pest or weed control at 200 ppm [1] | inhibition of growth at 20 ppm [2] | pest or weed control at 200 ppm [3]

CC(CNC(=O)c1ccc(-c2noc(C(F)(F)F)n2)cc1)=NO[C@@H](C)C(=O)O [Compound 1.120, (2S)-2-[[1-methyl-2-[[4-[5-(trifluoromethyl)-1,2,4-oxadiazol-3-yl]benzoyl]amino]ethylidene]amino] oxypropanoic acid]
≥ 80%: pest or weed control at 200 ppm [1] | inhibition of growth at 20 ppm [2] | pest or weed control at 200 ppm [3]

CC(C=NOCCN)NC(=O)c1ccc(-c2noc(C(F)(F)F)n2)cc1 (centres unmarked) [Compound 1.21, N-[2-(2-aminoethoxy-imino)-1-methyl-ethyl]-4-[5-(trifluoromethyl)-1,2,4-oxadiazol-3-yl]benzamide]
≥ 80%: pest or weed control at 200 ppm [1] | pest or weed control at 200 ppm [3] | pest or weed control at 200 ppm (Phakopsora pachyrhizi)
